The results in this text go back to patent publication US4745124A, “Orally effective anti-hypertensive agents” (priority 1983, dated 1988).

This experiment relates to pressor effects of angiotensin I. The experiment in a line: oral effectiveness: blood pressure response to angiotensin I in anesthetized rats. It counts as in vivo, rat. On the procedure: Rats (210-290 g body weight) were fasted overnight and then anesthetized with intraperitoneal pentobarbital, 50-60 mg/kg. Tracheostomy was performed and the animals were ventilated mechanically. A cannula was inserted into a femoral vein for injection of angiotensin I or II, and a second cannula was inserted into a common carotid artery for direct measurement of arterial blood pressure. Heparin, 1,000 units, was injected via the femoral vein to prevent coagulation. Blood pressure was measured with a pressure transducer connected to a polygraph. The rats were injected with 80 ng of angiotensin I or angiotensin II in 20 μl of 0.9 g % NaCl; an amount of antiotensin I or II sufficient to raise mean arterial blood pressure by 27-40 mm Hg. After the responsiveness of a given rat to angiotensins I and II was established, compound (I), at 2 or 5 mg/kg (drug dissolved in 0.5 ml of H2 O plus 10 μl of 1N NaHCO3), was given via a stomach tube. At timed intervals, the effects of 80 ng of angiotensin I or angiotensin II on mean arterial blood pressure were tested.
Rats were prepared as described in Example 222. Compound (II) [N-benzoyl-L-phenylalanylthiopropanoyl)-L-proline] was given orally, via a stomach tube, at a dose of 12 mg/kg or 20 mg/kg. Compound (II) was dissolved in 0.5 ml of H2 O plus 10 μl of 1N NaHCO3. In all other respects, the experimental preparations were exactly as described in Example 222.
Rats (210-290 g body weight) were fasted overnight and then anesthetized with intraperitoneal pentobarbital, 50-60 mg/kg. Tracheostomy was performed and the animals were ventilated mechanically. A cannula was inserted into a femoral vein for injection of angiotensin I or II, and a second cannula was inserted into a common carotid artery for direct measurement of arterial blood pressure. Heparin, 1,000 units, was injected via the femoral vein to prevent coagulation. Blood pressure was measured with a pressure transducer connected to a polygraph. The rats were injected with 160 ng of angiotensin I or 80 ng of angiotensin II in 20 μl of 0.9 g % NaCl; an amount of angiotensin I or II sufficient to raise mean arterial blood pressure by 27-40 mm Hg. After the responsiveness of a given rat to angiotensins I and II was established, compound (B) at 10 mg (drug dissolved in 0.5 ml of H2 O plus 10 μl of 1N NaHCO3), was given via a stomach tube. At timed intervals, the effects of 160 ng of angiotensin I or 80 ng of angiotensin II on mean arterial blood pressure were tested. Results are shown below:
Rats (210-290 g body weight) were fasted overnight and then anesthetized with intraperitoneal pentobarbital, 50-60 mg/kg. Tracheostomy was performed and the animals were ventilated mechanically. A cannula was inserted into a femoral vein for injection of angiotensin I, and a second cannula was inserted into a common carotid artery for direct measurement of arterial blood pressure. Heparin, 1,000 units, was injected via the femoral vein to prevent coagulation. Blood pressure was measured with a pressure transducer connected to a polygraph. The rats were injected with 400 ng/kg of angiotensin I in 20 μl of 0.9 g % NaCl; an amount of angiotensin I sufficient to raise mean arterial blood pressure by 39 mm Hg. After the responsiveness of a given rat to angiotensin I was established, the named compound at 17 μmol/kg (drug dissolved in 0.15 ml of H2 O plus 10 μl of 1N NaHCO3), was given via a stomach tube. At timed intervals, the effects of 400 ng/kg of angiotensin I on mean arterial blood pressure were tested. Results are shown below:
Rats (190-290 g body weight) were fasted overnight and then anesthetized with intraperitoneal pentobarbital, 50-60 mg/kg. Tracheostomy was performed and the animals were ventilated mechanically. A cannula was inserted into a femoral vein for injection of angtiotensin I, and a second cannula was inserted into a common carotid artery for direct measurement of arterial blood pressure. […]

On to `C[C@H](CSC(=O)[C@@H](N)Cc1ccccc1)C(=O)N1CCC[C@H]1C(=O)O` [N-alpha-(3-L-phenylalanylthio-2-D-methylpropanoyl)-L-proline], for which the “Blood Pressure Response to 400 ng/kg of Angiotensin I” value (“Blood Pressure Response to 400 ng/kg” below) reads like this: (oral 20 μmol/kg, 6 min, Ex. 237) 77 % of Control; (oral 20 μmol/kg, 10 min, Ex. 237) 69 % of Control; (oral 20 μmol/kg, 19 min, Ex. 237) 46 % of Control; (oral 20 μmol/kg, 25 min, Ex. 237) 38 % of Control; (oral 20 μmol/kg, 29 min, Ex. 237) 38 % of Control; (oral 20 μmol/kg, 38 min, Ex. 237) 33 % of Control. Besides, the “Blood Pressure Response to 400 ng/kg” value (oral 20 μmol/kg, 50 min, Ex. 237) is reported as 33 % of Control; the “Blood Pressure Response to 400 ng/kg” value (oral 20 μmol/kg, 57 min, Ex. 237) is recorded as 31 % of Control; the “Blood Pressure Response to 400 ng/kg” value (oral 20 μmol/kg, 65 min, Ex. 237) was 31 % of Control; the “Blood Pressure Response to 400 ng/kg” value (oral 20 μmol/kg, 74 min, Ex. 237) was 26 % of Control; the “Blood Pressure Response to 400 ng/kg” value (oral 20 μmol/kg, 88 min, Ex. 237) is on record as 36 % of Control.
With `CC(=O)N[C@@H](Cc1ccccc1)C(=O)SC[C@@H](C)C(=O)N1CCC[C@H]1C(=O)O` [N-alpha-[3-(N-alpha-acetyl-L-phenylalanylthio)-2-D-methylpropanoyl]-L-proline], the “Blood Pressure Response to 400 ng/kg” value reads like this: (oral 13.6 μmole/kg, 3 min, Ex. 235) 40 % of Control; (oral 13.6 μmole/kg, 7 min, Ex. 235) 40 % of Control; (oral 13.6 μmole/kg, 13 min, Ex. 235) 28 % of Control; (oral 13.6 μmole/kg, 18 min, Ex. 235) 24 % of Control; (oral 13.6 μmole/kg, 23 min, Ex. 235) 20 % of Control; (oral 13.6 μmole/kg, 31 min, Ex. 235) 18 % of Control. Further, the “Blood Pressure Response to 400 ng/kg” value is listed as 20 % of Control (oral 13.6 μmole/kg, 34 min, Ex. 235); 20 % of Control (oral 13.6 μmole/kg, 42 min, Ex. 235); 16 % of Control (oral 13.6 μmole/kg, 48 min, Ex. 235); 16 % of Control (oral 13.6 μmole/kg, 58 min, Ex. 235); 20 % of Control (oral 13.6 μmole/kg, 67 min, Ex. 235); 20 % of Control (oral 13.6 μmole/kg, 80 min, Ex. 235). Also, the “Blood Pressure Response to 400 ng/kg” value runs as follows: (oral 13.6 μmole/kg, 90 min, Ex. 235) 18 % of Control; (oral 13.6 μmole/kg, 100 min, Ex. 235) 16 % of Control; (oral 13.6 μmole/kg, 112 min, Ex. 235) 20 % of Control; (oral 13.6 μmole/kg, 125 min, Ex. 235) 20 % of Control; (oral 13.6 μmole/kg, 137 min, Ex. 235) 30 % of Control; (oral 13.6 μmole/kg, 167 min, Ex. 235) 50 % of Control.
For `C[C@H](CSC(=O)[C@H](Cc1ccccc1)NC(=O)C1CCCC1)C(=O)N1CCC[C@H]1C(=O)O` [N-alpha-[3-(N-alpha-cyclopentylcarbonyl-L-phenylalanylthio)-2-D-methylpropanoyl]-L-proline], the “Blood Pressure Response to 400 ng/kg” value by setting is: (oral 23 μmole/kg, 2 min, Ex. 231) 71 % of Control; (oral 23 μmole/kg, 6 min, Ex. 231) 63 % of Control; (oral 23 μmole/kg, 16 min, Ex. 231) 49 % of Control; (oral 23 μmole/kg, 23 min, Ex. 231) 43 % of Control; (oral 23 μmole/kg, 37 min, Ex. 231) 43 % of Control; (oral 23 μmole/kg, 48 min, Ex. 231) 40 % of Control. The “Blood Pressure Response to 400 ng/kg” value reads like this: (oral 23 μmole/kg, 64 min, Ex. 231) 26 % of Control; (oral 23 μmole/kg, 71 min, Ex. 231) 26 % of Control; (oral 23 μmole/kg, 84 min, Ex. 231) 37 % of Control; (oral 23 μmole/kg, 96 min, Ex. 231) 37 % of Control; (oral 23 μmole/kg, 109 min, Ex. 231) 40 % of Control; (oral 23 μmole/kg, 124 min, Ex. 231) 54 % of Control. The “Blood Pressure Response to 400 ng/kg” value reads like this: (oral 23 μmole/kg, 140 min, Ex. 231) 51 % of Control; (oral 23 μmole/kg, 157 min, Ex. 231) 63 % of Control; (oral 23 μmole/kg, 171 min, Ex. 231) 77 % of Control.
